Experimental data reported in patent US7759313B2, “Induction method for cell differentiation” (Obschetstvo S Ogranichennoi Otvetstvennostiyu …, priority 2002, dated 2010).
Marks after values point to notes of the source that are not given here.

Key:
[1] = tested on: murine B-16 melanoma cells; assay: IRCP of B-16 cells, peptide derivatives at 100 μM; assay type: cell-based
Description: The study was conducted on a continuous cell culture of murine B-16 melanoma growing in the form of a monolayer in a tissue culture. α-Interferon, selected as a preparation of comparison, was administered at concentration 70 IU/ml.
The tested compounds were transferred into stock solution (1,000 μM), sterilized through filers with 0.22 μm pore diameter and then diluted down to a concentration of 100 μM.
The effect of compounds on cells was assessed on the basis of initial rate of cell proliferation (IRCP). This index was determined by numbering the number of cells in micro colonies during the first days following affection in “test” (with preparations) and “control” (without preparations) dishes, by analyzing 50 colonies in each of them.
Calculations of cell numbers in micro colonies were done for every “point”. Toxicity was judged by B-16 melanoma cell survival, which was determined by the ratio between numbers of the grown colonies in “test” and “control” dishes.

[2] = tested on: Friend erythroblastosis; assay: Subcutaneously inoculated Friend erythroblastosis growth; assay type: in vivo, mice
Description: The studies were conducted on male mice hybrid 100 BDF1 that were divided into groups containing 10 mice each. Lineal DBA2 mice were used for passaging FEB in vivo.
A strain of Friend erythroblastosis was obtained from the bank of tumor strains of the GU RCRC named after N. N. Blokhin of the RAMS. It was twice passaged intraperitoneally using generations 3-8 in subcutaneous inoculation. The inoculation was done using a cellular suspension of 1×10^6 cells in 0.3 ml […].
Solutions of the tested compounds were intra-gastrically daily administered to mice using a probe from day 3 to day 7 after tumor inoculation.
Therapeutic efficacy was assessed on the basis of tumor growth inhibition (TGI, %) and an average life span (ALS). Increase in life span was determined by the commonly accepted criterion T/C (%), which was calculated as a ratio between ALS in the test and control groups. Tumor growth rate Vt/V1 was calculated on the basis of change growth in average tumor volumes.

[3] = Peripheral blood leukocytes formula under Cyclophosphamide; assay type: in vivo, mice; conditions: mouse, in vivo
From the text: Two groups of mice are used.

[4] = 1.5 mg/kg daily for 5 days, day 8
[5] = 1.5 mg/kg daily for 5 days, day 13
[6] = 1.5 mg/kg daily for 5 days, day 19
[7] = 4.5 mg/kg daily for 5 days, day 8
[8] = 4.5 mg/kg daily for 5 days, day 13
[9] = 4.5 mg/kg daily for 5 days, day 19

**Q.** Which “Initial rate of cell proliferation (% cells/colony relative to the control)” value ([1]; 48 hours) does the source give for O=C(O)CCCC(=O)NCCc1c[nH]cn1 [Dicarbamine] here?
**A.** 30.8 ± 2.8%

**Q.** What about the “Initial rate of cell proliferation (% cells/colony relative to the control)” value ([1]; 72 hours) of the same molecule?
**A.** 28.2 ± 2.2%

**Q.** What about the “Relative tumor volumes Vt/V1 at days after tumor inoculation” value [2, 4] of the same molecule?
**A.** 1.0

**Q.** What about the Tumor growth inhibition [2, 4] of the same molecule?
**A.** 61%

**Q.** And the “Relative tumor volumes Vt/V1” value [2, 5]?
**A.** 1.56

**Q.** And the Tumor growth inhibition [2, 5]?
**A.** 78* %

**Q.** And the “Relative tumor volumes Vt/V1” value [2, 6]?
**A.** 3.0

**Q.** What about the Tumor growth inhibition [2, 6] of the same molecule?
**A.** 55%

**Q.** And the “Relative tumor volumes Vt/V1” value [2, 7]?
**A.** 1.0

**Q.** And the Tumor growth inhibition [2, 7]?
**A.** 62%

**Q.** And the “Relative tumor volumes Vt/V1” value [2, 8]?
**A.** 2.3

**Q.** What about the Tumor growth inhibition [2, 8] of the same molecule?
**A.** 58%

**Q.** What about the “Relative tumor volumes Vt/V1” value [2, 9] of the same molecule?
**A.** 3.76

**Q.** And the Tumor growth inhibition [2, 9]?
**A.** 38%

**Q.** And the Myelocytes [3]?
**A.** 0 in mm^3
